Test results as given in ChEMBL document CHEMBL1130465, “Peptidic prodrugs of novel aminomethyl-THF 1-methylcarbapenems” (1997).
≈ marks a conversion by molar mass, not a printed value.

Columns and labels:
Assay type in all cases: functional
Enterococcus faecalis = assay: In vitro antimicrobial activity against Enterococcus faecalis GC 842 strain; conditions: Enterococcus faecalis; read-out: MIC
Mus musculus [1] = assay: Tested for oral activity against Escherichia coli #311 infection in mice after single subcutaneous dose(SSC)
Pseudomonas aeruginosa [2] = assay: In vitro antimicrobial activity against Pseudomonas aeruginosa ATCC 27853 strain; conditions: Pseudomonas aeruginosa, ATCC 27853; read-out: MIC
Staphylococcus aureus [3] = assay: In vitro antimicrobial activity against Staphylococcus aureus ATCC 29213 strain
Mus musculus [4] = species on record: Mus musculus; assay: animal or person; conditions: Mus musculus, po; read-out: ED50
Description: Tested for oral activity against Escherichia coli #311 infection in mice after single oral dose(SOD)

Escherichia coli [5] = assay: In vitro antimicrobial activity against Escherichia coli GC 1792 strain; conditions: Escherichia coli; read-out: MIC
Citrobacter freundii = assay: In vitro antimicrobial activity against Citrobacter freundii GC 2211 strain; conditions: Citrobacter freundii; read-out: MIC
[6] = system: Stenotrophomonas maltophilia; assay: In vitro antimicrobial activity against Xanthomonas maltophilia GC 562 strain
Enterococcus faecium = assay: In vitro antimicrobial activity against Enterococcus faecium GC 1182 strain; conditions: Enterococcus faecium; read-out: MIC
Enterobacter cloacae = assay: In vitro antimicrobial activity against Enterobacter cloacae GC 2209 strain
Morganella morganii = assay: In vitro antimicrobial activity against Morganella morganii GC 2213 strain; conditions: Morganella morganii; read-out: MIC
Pseudomonas aeruginosa [7] = assay: In vitro antimicrobial activity against Pseudomonas aeruginosa GC 1544 strain; conditions: Pseudomonas aeruginosa; read-out: MIC
[8] = system: Acinetobacter calcoaceticus; assay: In vitro antimicrobial activity against Acinetobacter calcoaceticus GC 756 strain; conditions: Acinetobacter calcoaceticus; read-out: MIC
Escherichia coli [9] = assay: In vitro antimicrobial activity against Escherichia coli ATCC 25922 strain
Escherichia coli [10] = assay: In vitro antimicrobial activity against Escherichia coli GC 2205 strain
Staphylococcus aureus [11] = assay: In vitro antimicrobial activity against Staphylococcus aureus GC 2220 strain; conditions: Staphylococcus aureus; read-out: MIC
Mus musculus [12] = assay: Tested for oral activity against Staphylococcus aureus smith infection in mice after single oral dose(SOD); 4-8
[13] = Ratio of ED50 of single oral dose to ED50 of single subcutaneous dose against Staphylococcus aureus smith infection in mice
Mus musculus [14] = assay: Tested for oral activity against Staphylococcus aureus smith infection in mice after single subcutaneous dose(SSC); 0.12-0.25
Mus musculus [15] = assay: Tested for oral activity against Escherichia coli #311 infection in mice after single subcutaneous dose(SSC); 0.5-1

Compound	MIC (Enterococcus faecalis) [µg/mL]	ED50 (Mus musculus [1]) [mg/kg]	MIC (Pseudomonas aeruginosa [2]) [µg/mL]	MIC (Staphylococcus aureus [3]) [µg/mL]	ED50 (Mus musculus [4]) [mg/kg]	MIC (Escherichia coli [5]) [µg/mL]	MIC (Citrobacter freundii) [µg/mL]	MIC [6] [µg/mL]	MIC (Enterococcus faecium) [µg/mL]	MIC (Enterobacter cloacae) [µg/mL]	MIC (Morganella morganii) [µg/mL]	MIC (Pseudomonas aeruginosa [7]) [µg/mL]	MIC [8] [µg/mL]	MIC (Escherichia coli [9]) [µg/mL]	MIC (Escherichia coli [10]) [µg/mL]	MIC (Staphylococcus aureus [11]) [µg/mL]	ED50 (Mus musculus [12]) [mg/kg]	Ratio [13]	ED50 (Mus musculus [14]) [mg/kg]	ED50 (Mus musculus [15]) [mg/kg]
C[C@H]1C(S[C@@H]2CCO[C@@H]2CNC(=O)[C@@H](N)Cc2ccccc2)=C(C(=O)O)N2C(=O)[C@H]([C@@H](C)O)C12 (some centres undefined)	1 (≈ 2.04 µM)	13	64 (≈ 131 µM)	0.25 (≈ 0.511 µM)	24	0.5 (≈ 1.02 µM)	8 (≈ 16.3 µM)	> 128	128 (≈ 261 µM)	4 (≈ 8.17 µM)	2 (≈ 4.09 µM)	128 (≈ 261 µM)	32 (≈ 65.4 µM)	0.5 (≈ 1.02 µM)	0.06 (≈ 0.123 µM)	8 (≈ 16.3 µM)	–	–	–	–
C[C@H]1C(S[C@H]2COC[C@H]2CN)=C(C(=O)O)N2C(=O)[C@H]([C@@H](C)O)C12 (some centres undefined)	2 (≈ 5.84 µM)	–	16 (≈ 46.7 µM)	< 0.06	–	< 0.06	0.25 (≈ 0.73 µM)	> 128	128 (≈ 374 µM)	< 0.06	2 (≈ 5.84 µM)	32 (≈ 93.5 µM)	2 (≈ 5.84 µM)	< 0.06	0.12 (≈ 0.35 µM)	4 (≈ 11.7 µM)	4	33	0.12	0.5
